Patent US10023587B2, “Oxabicycloheptanes and oxabicycloheptenes, their preparation and use” (LIXTE BIOTECHNOLOGY, INC., priority 2007, dated 2018)
“Also recorded” adds a separate entry of the source. Read-outs that look alike come from different tables or passages of the source.

Tests used:
GBM cell line U373 [1] = assay: Inhibition of growth of GBM cell line U373 by single agents (cell counts); format: cell-based, human; settings: for Inhibition of growth of cell line U373 (in words): single agent; for IC50: U373, exposure for 7 days, estimated from graphic plots (FIG. 1), read-out: concentration that inhibited brain tumor cell proliferation by 50% (IC50)
Description: From graphic plots of the glioblastoma multiforme GBM cell line U373 (available from the National Institute of Neurological Disorders and Stroke Molecular Pathogenesis Unit, Building 10, Room 5 D37, National Institutes of Health, 900 Rockville Pike, Bethesda, Md., 20892) as a function of exposure to different doses of drug for 7 days, the concentration of each compound that inhibited brain tumor cell proliferation by 50% (IC50) was estimated.
To identify novel therapeutic targets for the treatment of glioblastoma multiforme (GBM), cantharidin analogues were evaluated for their ability to inhibit growth of glioblastoma multiforme cells. Specifically, GBM cell line U373 was used in evaluations.
(§1) The total number of cells is counted in the triplicate cultures at each dose and in controls after 7 days and the average number of cells and the standard deviation is determined.
(§2) The amount of inhibition of GBM cell growth is expressed as the proportion of the number of cells in the experimental dishes compared to the number of cells in control dishes containing only the drug vehicle and culture medium. The average percent of control is plotted and bracketed by one standard deviation calculated from the triplicate measurements.
For all cell culture experiments, cells are allowed to grow in the presence or absence of different concentrations of drug or in the presence of the vehicle used to dissolve the drug, PBS for compound 100 and DMSO for compound 102. Cell counts are done in triplicate on day 3 and day 7 and inhibition of growth is expressed as a percentage of the number of cells present in the experimental well divided by the number of cells in a control well.

[2] = system: breast cancer line, MCF-7; assay: Inhibition of growth of breast cancer cell line MCF-7; format: cell-based; settings: single agent, 7 days (FIG. 5)
Description: (§3) To determine whether there is tumor type specificity of the inhibitory properties of analogues of Compound 100, retinoic acid and Trichostatin A, we measured their inhibitory effects as single agents against the GBM line U373, a breast cancer line, MCF-7 (obtained from ATCC) and a kidney cancer cell line, UMRC (UMRC obtained by Dr. Zhuang, NINDS, NIH from the Intramural Research Support Program, SAIC, National Cancer Institute, Frederick Cancer Research and Development Center).

GBM cell line U373 [3] = assay: cells; format: cell-based, human
Protocol: as §1, with “To observe the effects Compound 100 in combination with retinoic acids, Compound 100 was combined with all-trans retinoic acid. […] The” for “The”
as §2
Synergism (potentiation) of the inhibitory activity of two drugs in combination is said to be present when the percent survival in the presence of two drugs is less than the product of the percent survivals of the two drugs used alone at the same doses in the combination.

[4] = system: kidney cancer cell line, UMRC; assay: Inhibition of growth of kidney cancer cell line UMRC; format: cell-based; settings: single agent, 7 days (FIG. 3)
Description: as §3

Stability at acid pH = format: physicochemical
[5] = Solubility (water, lipid); format: physicochemical; settings: own compounds
[6] = known cantharidin homologs, stated as known; cited from earlier work

Structure (SMILES) | melting point | Inhibition of growth of cell line U373 (in words) (GBM cell line U373 [1]; 7 days) | Inhibition of growth of MCF-7 (in words) [2] | Sensitivity of UMRC compared with U373 (in words) [4] | other results
COC(=O)C1C(C(=O)N2CCN(C)CC2)[C@@H]2CC[C@H]1O2 (stereo partly drawn) | 105 to 107 °C | – | – | – | –
O=C(O)C1C(C(=O)N2CCNCC2)[C@@H]2CC[C@H]1O2 (stereo in doubt) [Compound 101, 3-(Piperazine-1-carbonyl)-7-oxa-bicyclo[2.2.1]heptane-2-carboxylic acid] | > 240 °C (dec.) | less activity | – | – | –
O=C(O)C1C(C(=O)N2CCN(Cc3ccccc3)CC2)[C@@H]2CC[C@H]1O2 (stereo in doubt) [Compound 103, 3-(4-Benzylpiperazine-1-carbonyl)-7-oxa-bicyclo[2.2.1]heptane-2-carboxylic acid] | > 190 °C (dec.) | less activity | – | – | –
COc1ccc(CCN2CCC(NC(=O)C3C(C(=O)O)[C@H]4CC[C@@H]3O4)CC2)cc1 (stereo in doubt) [Compound 104, 3-(1-[2-(4-Methoxy-phenyl)-ethyl]piperidin-4-ylcarbamoyl)-7-oxa-bicyclo[2.2.1]-heptane-2-carboxylic acid] | 140 to 142 °C | less activity | – | – | –
CC1=C(/C=C/C(C)=C/C=C/C(C)=C/C(=O)O)C(C)(C)CCC1 [ATRA, all-trans retinoic acid] | – | – | an inhibition in growth | less sensitive than the brain tumor line, U373 | Inhibition of growth of MCF-7 (in words) ([2]; listed as all-trans retinoic acid): as sensitive as U373; activity at 25 µM (GBM cell line U373 [3]; Homo sapiens, U373 MG, 168 h, read-out: Percent of Control, Observed): 77%
CC1=C(/C=C/C(C)=C/C=C/C(C)=C\C(=O)O)C(C)(C)CCC1 [Cis-RA, 13-cis Retinoic Acid] | – | – | – | – | Percent of Control, Observed (GBM cell line U373 [3]; Cis-RA 50 μM, U373 (Table 4)): 93.3 +/− 2.2% of Control
CCN1CCN(C(=O)C2C(C(=O)O)[C@H]3CC[C@@H]2O3)CC1 (stereo partly drawn) [Compound 105, 1-(3-Exocarboxy-7-oxabicyclo[2.2.1]heptane-2-exocarbonyl)-4-ethylpiperazine] | – | Increasing dosages demonstrate a greater inhibition of growth | – | – | Stability at acid pH (in words) (Stability at acid pH): stable at acid pH; Inhibitory value against U373, comparison of the two compounds (GBM cell line U373 [1]; 10 μM, seven days (FIG. 8)): identical inhibitory values; Inhibition of growth of cell line U373 (in words) (GBM cell line U373 [1]; 7 days, listed as compound 105): highly active; Inhibition of growth of cell line U373 (in words) (GBM cell line U373 [1]; after three days (FIG. 6)): Increasing dosages demonstrate a greater inhibition of growth; Water solubility (in words) [5]: water soluble
CN(C)CCNC(=O)C1C(C(=O)O)[C@H]2CC[C@@H]1O2 (stereo partly drawn) [Compound 106] | 48 to 50 °C | less activity | – | – | –
CC(/C=C/C(=O)NO)=C\[C@@H](C)C(=O)c1ccc(N(C)C)cc1 [TSA, Trichostatin A] | – | – | an inhibition in growth | less sensitive than the brain tumor line, U373 | Inhibition of growth of MCF-7 (in words) ([2]; listed as Trichostatin A): as sensitive as U373; Percent of Control, Observed (GBM cell line U373 [3]; TSA 0.033 μM (0.01 μg/ml), U373 (Table 4)): 71.6 +/− 0.4% of Control
C[C@@]12C(=O)OC(=O)[C@]1(C)[C@H]1CC[C@@H]2O1 [cantharidin] | – | – | – | – | Water solubility (in words) [6]: not
O=C1SC(=O)[C@H]2[C@@H]1[C@@H]1CC[C@H]2O1 [endothal thioanhydride, reference compound] | – | Increasing dosages demonstrate a greater inhibition of growth; also recorded: greatest inhibition of growth | as sensitive as U373 | less sensitive than the brain tumor line, U373 | IC50 (GBM cell line U373 [1]): 2.5 µM
O=C(O)[C@@H]1[C@H](C(=O)O)[C@H]2CC[C@@H]1O2 [endothal] | – | Increasing dosages demonstrate a greater inhibition of growth; also recorded: modest inhibition of growth | as sensitive as U373; also recorded: an inhibition in growth | less sensitive than the brain tumor line, U373 | IC50 (GBM cell line U373 [1]): 15 µM; Percent of Control, Observed (GBM cell line U373 [3]; END 10 uM, U373, 7 days (Table 3)): 65%
O=C1OC(=O)[C@H]2[C@@H]1[C@H]1CC[C@H]2O1 [norcantharidin] | – | Increasing dosages demonstrate a greater inhibition of growth | as sensitive as U373 | less sensitive than the brain tumor line, U373 | IC50 (GBM cell line U373 [1]): 12 µM; Water solubility (in words) [6]: not
